Measured values published in patent US20250275959A1, “COMPOUNDS AND METHODS OF THEIR USE” (LEXICON PHARMACEUTICALS, INC., priority 2024, published 2025).
pIC50: −log10 of the molar value.

Experiments:
hACSL5 [1] = target: T1, hACSL5 (Homo sapiens (Human), UniProt Q9ULC5); assay: Cell-based assay (CBA) with B12FA in hACSL5-transfected Expi293F / FlpIn TRex293 cells; conditions: hACSL5-expressing cells
Outline: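 hACSL5-expressing Expi293F or tetracycline-induced FlpIn TRex293 cells, serum- and glucose-starved 1 h, then treated 3 h with serially diluted compound plus 20 µM B12FA. After fixation, 630/520 nm emission ratio (ex 485 nm) gave % inhibition versus no-inhibitor and 10 µM compound/non-induced controls; IC50 by Hill fit.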
Target sequence in this assay (Q9ULC5 whole entry): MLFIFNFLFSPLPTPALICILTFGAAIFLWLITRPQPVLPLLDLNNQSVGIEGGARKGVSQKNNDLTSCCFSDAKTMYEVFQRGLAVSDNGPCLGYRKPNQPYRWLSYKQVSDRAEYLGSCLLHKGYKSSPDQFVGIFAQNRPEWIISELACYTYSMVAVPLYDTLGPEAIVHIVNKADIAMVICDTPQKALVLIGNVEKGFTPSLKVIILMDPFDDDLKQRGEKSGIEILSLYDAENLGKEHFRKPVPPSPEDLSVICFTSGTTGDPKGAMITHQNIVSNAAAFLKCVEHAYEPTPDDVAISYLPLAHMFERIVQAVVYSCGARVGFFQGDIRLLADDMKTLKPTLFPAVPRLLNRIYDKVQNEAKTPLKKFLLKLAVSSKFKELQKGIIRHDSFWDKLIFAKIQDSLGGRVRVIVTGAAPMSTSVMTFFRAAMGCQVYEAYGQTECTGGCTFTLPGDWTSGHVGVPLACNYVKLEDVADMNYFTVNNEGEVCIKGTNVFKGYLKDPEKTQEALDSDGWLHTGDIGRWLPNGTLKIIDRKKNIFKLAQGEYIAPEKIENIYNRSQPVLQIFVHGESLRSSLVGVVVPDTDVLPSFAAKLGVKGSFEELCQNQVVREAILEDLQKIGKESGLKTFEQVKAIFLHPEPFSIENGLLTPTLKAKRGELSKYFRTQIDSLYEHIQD

hACSL5 [2] = target: T1, hACSL5; assay: Human ACSL5 coupled enzyme Amplex Red assay; assay type: biochemical; conditions: read-out: hACSL5 IC50
Outline: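 Amplex Red coupled readout: 1 mM ATP, 25 μM oleate and 30 μM CoA were added to compound-preincubated enzyme (20 nM, residues 33-683, insect-cell expressed, His-tagged) with coupling peroxidase and acyl-CoA oxidase at pH 7.6. Signal was read at 535/590 nm after 10 minutes at 25° C., and Hill fits yielded half-maximal and maximal inhibition.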
Target sequence in this assay (Q9ULC5 33-683): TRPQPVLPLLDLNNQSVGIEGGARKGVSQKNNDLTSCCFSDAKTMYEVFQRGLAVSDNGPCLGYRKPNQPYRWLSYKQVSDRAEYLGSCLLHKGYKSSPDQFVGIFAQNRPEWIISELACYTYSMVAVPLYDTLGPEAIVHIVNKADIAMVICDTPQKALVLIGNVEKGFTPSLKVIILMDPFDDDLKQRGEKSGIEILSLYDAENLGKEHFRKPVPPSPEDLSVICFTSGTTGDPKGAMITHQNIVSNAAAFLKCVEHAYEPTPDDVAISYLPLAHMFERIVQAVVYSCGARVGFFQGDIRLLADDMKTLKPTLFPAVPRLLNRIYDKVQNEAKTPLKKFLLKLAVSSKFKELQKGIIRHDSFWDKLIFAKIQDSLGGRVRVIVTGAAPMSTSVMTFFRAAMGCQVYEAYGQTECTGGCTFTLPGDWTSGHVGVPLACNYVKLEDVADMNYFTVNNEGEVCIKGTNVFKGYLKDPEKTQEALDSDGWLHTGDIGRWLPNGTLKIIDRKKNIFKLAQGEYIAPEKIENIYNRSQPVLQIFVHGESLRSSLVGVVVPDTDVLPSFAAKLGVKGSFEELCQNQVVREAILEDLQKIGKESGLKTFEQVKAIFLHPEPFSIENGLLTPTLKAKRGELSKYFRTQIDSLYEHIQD

Row | Compound | pIC50 (hACSL5 [1]) | pIC50 (hACSL5 [2])
1 | C[C@@H](Oc1ccc(C(=O)NS(=O)(=O)N2CCC(OC3CCN(C)CC3)CC2)cc1C(F)(F)F)c1ccc(Oc2ccccn2)cn1 [(R)-N-((4-((1-methylpiperidin-4-yl)oxy)piperidin-1-yl)sulfonyl)-4-(1-(5-(pyridin-2-yloxy)pyridin-2-yl)ethoxy)-3-(trifluoromethyl)benzamide] | > 7.00 | > 7.00
2 | CC[C@@H](Oc1ccc(C(=O)NS(=O)(=O)N2CCC(OC3CCN(C)CC3)CC2)cc1C(F)(F)F)c1ccc(Oc2ccccn2)cn1 [(R)-N-((4-((1-methylpiperidin-4-yl)oxy)piperidin-1-yl)sulfonyl)-4-(1-(5-(pyridin-2-yloxy)pyridin-2-yl)propoxy)-3-(trifluoromethyl)benzamide] | > 7.00 | > 7.00
3 | CC[C@@H](Oc1ccc(C(=O)NS(=O)(=O)c2ccc(OCc3c[nH]cn3)cc2)c(F)c1F)c1ccc(OCCOC)cn1 [(R)-N-((4-((1H-imidazol-4-yl)methoxy)phenyl)sulfonyl)-2,3-difluoro-4-(1-(5-(2-methoxyethoxy)pyridin-2-yl)propoxy)benzamide] | < 6.30 | > 7.00
4 | CC[C@@H](Oc1ccc(C(=O)NS(=O)(=O)N2CCN(CC3CC3)CC2)c(F)c1F)c1ccc(Oc2ccccn2)cn1 [(R)-N-((4-(cyclopropylmethyl)piperazin-1-yl)sulfonyl)-2,3-difluoro-4-(1-(5-(pyridin-2-yloxy)pyridin-2-yl)propoxy)benzamide] | > 7.00 | > 7.00
5 | CC[C@@H](Oc1ccc(C(=O)NS(=O)(=O)N2CCN(C3CCC3)CC2)c(F)c1F)c1ccc(Oc2ccccn2)cn1 [(R)-N-((4-cyclobutylpiperazin-1-yl)sulfonyl)-2,3-difluoro-4-(1-(5-(pyridin-2-yloxy)pyridin-2-yl)propoxy)benzamide] | > 7.00 | > 7.00
6 | CC[C@@H](Oc1ccc(C(=O)NS(=O)(=O)N2CCN(C3CCC3)CC2)c(F)c1F)c1ccc(OCC2CC2)cn1 [(R)-N-((4-cyclobutylpiperazin-1-yl)sulfonyl)-4-(1-(5-(cyclopropylmethoxy)pyridin-2-yl)propoxy)-2,3-difluorobenzamide] | > 7.00 | > 7.00
7 | CC[C@@H](Oc1ccc(C(=O)NS(=O)(=O)N2CCN(C3CCCCC3)CC2)c(F)c1F)c1ccc(Oc2ccccn2)cn1 [(R)-N-((4-cyclohexylpiperazin-1-yl)sulfonyl)-2,3-difluoro-4-(1-(5-(pyridin-2-yloxy)pyridin-2-yl)propoxy)benzamide] | 6.30 to 7.00 | > 7.00
8 | CC[C@@H](Oc1ccc(C(=O)NS(=O)(=O)N2CCN(C3CCCCC3)CC2)c(F)c1F)c1ccc(OCC2CC2)cn1 [(R)-N-((4-cyclohexylpiperazin-1-yl)sulfonyl)-4-(1-(5-(cyclopropylmethoxy)pyridin-2-yl)propoxy)-2,3-difluorobenzamide] | < 6.30 | > 7.00
9 | CC[C@@H](Oc1ccc(C(=O)NS(=O)(=O)N2CCN(C3CCCC3)CC2)c(F)c1F)c1ccc(Oc2ccccn2)cn1 [(R)-N-((4-cyclopentylpiperazin-1-yl)sulfonyl)-2,3-difluoro-4-(1-(5-(pyridin-2-yloxy)pyridin-2-yl)propoxy)benzamide] | 6.30 to 7.00 | > 7.00
10 | CC[C@@H](Oc1ccc(C(=O)NS(=O)(=O)N2CCN(C3CCCC3)CC2)c(F)c1F)c1ccc(OCC2CC2)cn1 [(R)-N-((4-cyclopentylpiperazin-1-yl)sulfonyl)-4-(1-(5-(cyclopropylmethoxy)pyridin-2-yl)propoxy)-2,3-difluorobenzamide] | 6.30 to 7.00 | > 7.00
11 | CC[C@@H](Oc1ccc(C(=O)NS(=O)(=O)N2CCN(C3CC3)CC2)c(F)c1F)c1cc(Oc2ccccn2)ccn1 [(R)-N-((4-cyclopropylpiperazin-1-yl)sulfonyl)-2,3-difluoro-4-(1-(4-(pyridin-2-yloxy)pyridin-2-yl)propoxy)benzamide] | 6.30 to 7.00 | > 7.00
12 | CC[C@@H](Oc1ccc(C(=O)NS(=O)(=O)N2CCN(C3CC3)CC2)c(F)c1F)c1ccc(Oc2ccccn2)cn1 [(R)-N-((4-cyclopropylpiperazin-1-yl)sulfonyl)-2,3-difluoro-4-(1-(5-(pyridin-2-yloxy)pyridin-2-yl)propoxy)benzamide] | > 7.00 | > 7.00
13 | CC[C@@H](Oc1ccc(C(=O)NS(=O)(=O)N2CCN(CC)CC2)c(F)c1F)c1ccc(Oc2ccccn2)cn1 [(R)-N-((4-ethylpiperazin-1-yl)sulfonyl)-2,3-difluoro-4-(1-(5-(pyridin-2-yloxy)pyridin-2-yl)propoxy)benzamide] | > 7.00 | > 7.00
14 | CC[C@@H](Oc1ccc(C(=O)NS(=O)(=O)N2CCN(CC)CC2)cc1C(F)(F)F)c1ccc(Oc2ccccn2)cn1 [(R)-N-((4-ethylpiperazin-1-yl)sulfonyl)-4-(1-(5-(pyridin-2-yloxy)pyridin-2-yl)propoxy)-3-(trifluoromethyl)benzamide] | > 7.00 | > 7.00
15 | CC[C@@H](Oc1ccc(C(=O)NS(=O)(=O)N2CCN(C)CC2)cc1C(F)(F)F)c1ccc(Oc2ccccn2)cn1 [(R)-N-((4-methylpiperazin-1-yl)sulfonyl)-4-(1-(5-(pyridin-2-yloxy)pyridin-2-yl)propoxy)-3-(trifluoromethyl)benzamide] | > 7.00 | > 7.00
16 | CCOc1ccc(C(C)Oc2ccc(C(=O)NS(=O)(=O)c3ccc(OCCn4ccnc4)cc3)c(F)c2F)nc1 (stereo not drawn) [N-((4-(2-(1H-imidazol-1-yl)ethoxy)phenyl)sulfonyl)-4-(1-(5-ethoxypyridin-2-yl)ethoxy)-2,3-difluorobenzamide] | < 6.30 | 6.30 to 7.00
17 | CC[C@@H](Oc1ccc(C(=O)NS(=O)(=O)c2ccc(OCCN(C)C)cc2)c(F)c1F)c1ccc(OC2CC(OC)C2)cn1 (stereo partly drawn) [N-((4-(2-(dimethylamino)ethoxy)phenyl)sulfonyl)-2,3-difluoro-4-((R)-1-(5-((1R,3R)-3-methoxycyclobutoxy)pyridin-2-yl)propoxy)benzamide] | 6.30 to 7.00 | > 7.00
18 | CC[C@@H](Oc1ccc(C(=O)NS(=O)(=O)c2ccc(OCCN(C)C)cc2)cc1C(F)(F)F)c1ccc(OC2CC(OC)C2)cn1 (stereo partly drawn) [N-((4-(2-(dimethylamino)ethoxy)phenyl)sulfonyl)-4-((R)-1-(5-((1R,3R)-3-methoxycyclobutoxy)pyridin-2-yl)propoxy)-3-(trifluoromethyl)benzamide] | 6.30 to 7.00 | 6.30 to 7.00
19 | CC[C@@H](Oc1ccc(C(=O)NS(=O)(=O)c2ccc(O[C@@H]3C[C@H]4C[C@@H]3CN4)cc2)c(F)c1F)c1ccc(OCC2CC2)cn1 [N-((4-(((1R,4R,5R)-2-azabicyclo[2.2.1]heptan-5-yl)oxy)phenyl)sulfonyl)-4-((R)-1-(5-(cyclopropylmethoxy)pyridin-2-yl)propoxy)-2,3-difluorobenzamide] | < 6.30 | > 7.00
20 | CC[C@@H](Oc1ccc(C(=O)NS(=O)(=O)N2CCN(C3CC3)CC2)c(F)c1F)c1ccc(OC2CC(OC)C2)cn1 (stereo partly drawn) [N-((4-cyclopropylpiperazin-1-yl)sulfonyl)-2,3-difluoro-4-((R)-1-(5-((1R,3R)-3-methoxycyclobutoxy)pyridin-2-yl)propoxy)benzamide] | 6.30 to 7.00 | > 7.00
21 | CC[C@@H](Oc1ccc(C(=O)NS(=O)(=O)N2CCN(C)[C@@H](C)C2)c(F)c1F)c1ccc(Oc2ccccn2)cn1 [N-(((S)-3,4-dimethylpiperazin-1-yl)sulfonyl)-2,3-difluoro-4-((R)-1-(5-(pyridin-2-yloxy)pyridin-2-yl)propoxy)benzamide] | > 7.00 | > 7.00
